According to publication PMC7827406, “Structure–Activity Relationship (SAR) Study of Spautin-1 to Entail the Discovery of Novel NEK4 Inhibitors” (International Journal of Molecular Sciences, 2021):
Where two headings read alike, the source gives them in different places.

Experiments:
Assay in all cases: biochemical
Set-up in all cases: Eurofins KinaseProfiler full panel at Km ATP, residual kinase activity (%) relative to DMSO
ASK1(h) = target: T1, ASK1(h) (Homo sapiens, UniProt Q99683)
T1 construct: gene MAP3K5
T1 sequence (Q99683 1-1374): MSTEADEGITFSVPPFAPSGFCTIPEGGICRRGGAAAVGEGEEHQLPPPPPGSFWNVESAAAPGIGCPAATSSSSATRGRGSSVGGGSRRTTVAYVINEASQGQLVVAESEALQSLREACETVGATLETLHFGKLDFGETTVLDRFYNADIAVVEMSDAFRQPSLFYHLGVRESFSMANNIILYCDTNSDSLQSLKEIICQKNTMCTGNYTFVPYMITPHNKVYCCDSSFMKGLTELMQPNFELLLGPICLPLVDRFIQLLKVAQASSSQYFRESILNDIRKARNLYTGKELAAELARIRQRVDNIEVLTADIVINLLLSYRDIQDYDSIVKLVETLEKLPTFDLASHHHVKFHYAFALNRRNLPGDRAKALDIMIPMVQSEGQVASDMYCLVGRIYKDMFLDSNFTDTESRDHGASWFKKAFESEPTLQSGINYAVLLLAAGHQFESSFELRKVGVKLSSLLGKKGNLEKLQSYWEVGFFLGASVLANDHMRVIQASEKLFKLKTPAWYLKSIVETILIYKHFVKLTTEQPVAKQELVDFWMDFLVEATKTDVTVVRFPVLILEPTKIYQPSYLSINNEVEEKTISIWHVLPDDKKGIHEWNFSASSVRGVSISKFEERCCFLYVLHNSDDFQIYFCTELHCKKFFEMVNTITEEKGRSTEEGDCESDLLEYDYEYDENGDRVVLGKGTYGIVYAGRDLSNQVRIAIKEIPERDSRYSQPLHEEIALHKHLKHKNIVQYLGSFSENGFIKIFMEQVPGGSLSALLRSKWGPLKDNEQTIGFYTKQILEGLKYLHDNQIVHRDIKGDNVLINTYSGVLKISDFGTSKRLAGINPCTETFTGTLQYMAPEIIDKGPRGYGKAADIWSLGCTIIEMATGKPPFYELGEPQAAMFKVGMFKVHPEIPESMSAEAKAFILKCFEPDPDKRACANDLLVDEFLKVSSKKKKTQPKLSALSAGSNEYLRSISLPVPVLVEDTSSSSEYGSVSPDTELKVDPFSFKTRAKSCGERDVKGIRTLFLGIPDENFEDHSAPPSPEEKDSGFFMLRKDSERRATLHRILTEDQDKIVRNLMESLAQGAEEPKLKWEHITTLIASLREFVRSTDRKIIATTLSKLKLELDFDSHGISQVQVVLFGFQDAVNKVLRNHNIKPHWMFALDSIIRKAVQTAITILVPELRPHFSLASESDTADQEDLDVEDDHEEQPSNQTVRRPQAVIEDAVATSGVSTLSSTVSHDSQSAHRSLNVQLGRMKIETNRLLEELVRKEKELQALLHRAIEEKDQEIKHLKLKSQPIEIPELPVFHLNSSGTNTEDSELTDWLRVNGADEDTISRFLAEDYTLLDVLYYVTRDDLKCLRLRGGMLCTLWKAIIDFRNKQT
Procedure, shortened: (§1)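 Two 10 µM single-concentration screens were run: a competition-binding screen, in which DNA-tagged kinase bound to immobilized ligands was quantified by qPCR, and a radiometric activity panel at Km ATP. Each is expressed as residual kinase activity (%).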

IR(h) = target: T2, IR(h) (Homo sapiens, UniProt P06213)
T2 construct: gene INSR
T2 sequence (P06213 whole entry): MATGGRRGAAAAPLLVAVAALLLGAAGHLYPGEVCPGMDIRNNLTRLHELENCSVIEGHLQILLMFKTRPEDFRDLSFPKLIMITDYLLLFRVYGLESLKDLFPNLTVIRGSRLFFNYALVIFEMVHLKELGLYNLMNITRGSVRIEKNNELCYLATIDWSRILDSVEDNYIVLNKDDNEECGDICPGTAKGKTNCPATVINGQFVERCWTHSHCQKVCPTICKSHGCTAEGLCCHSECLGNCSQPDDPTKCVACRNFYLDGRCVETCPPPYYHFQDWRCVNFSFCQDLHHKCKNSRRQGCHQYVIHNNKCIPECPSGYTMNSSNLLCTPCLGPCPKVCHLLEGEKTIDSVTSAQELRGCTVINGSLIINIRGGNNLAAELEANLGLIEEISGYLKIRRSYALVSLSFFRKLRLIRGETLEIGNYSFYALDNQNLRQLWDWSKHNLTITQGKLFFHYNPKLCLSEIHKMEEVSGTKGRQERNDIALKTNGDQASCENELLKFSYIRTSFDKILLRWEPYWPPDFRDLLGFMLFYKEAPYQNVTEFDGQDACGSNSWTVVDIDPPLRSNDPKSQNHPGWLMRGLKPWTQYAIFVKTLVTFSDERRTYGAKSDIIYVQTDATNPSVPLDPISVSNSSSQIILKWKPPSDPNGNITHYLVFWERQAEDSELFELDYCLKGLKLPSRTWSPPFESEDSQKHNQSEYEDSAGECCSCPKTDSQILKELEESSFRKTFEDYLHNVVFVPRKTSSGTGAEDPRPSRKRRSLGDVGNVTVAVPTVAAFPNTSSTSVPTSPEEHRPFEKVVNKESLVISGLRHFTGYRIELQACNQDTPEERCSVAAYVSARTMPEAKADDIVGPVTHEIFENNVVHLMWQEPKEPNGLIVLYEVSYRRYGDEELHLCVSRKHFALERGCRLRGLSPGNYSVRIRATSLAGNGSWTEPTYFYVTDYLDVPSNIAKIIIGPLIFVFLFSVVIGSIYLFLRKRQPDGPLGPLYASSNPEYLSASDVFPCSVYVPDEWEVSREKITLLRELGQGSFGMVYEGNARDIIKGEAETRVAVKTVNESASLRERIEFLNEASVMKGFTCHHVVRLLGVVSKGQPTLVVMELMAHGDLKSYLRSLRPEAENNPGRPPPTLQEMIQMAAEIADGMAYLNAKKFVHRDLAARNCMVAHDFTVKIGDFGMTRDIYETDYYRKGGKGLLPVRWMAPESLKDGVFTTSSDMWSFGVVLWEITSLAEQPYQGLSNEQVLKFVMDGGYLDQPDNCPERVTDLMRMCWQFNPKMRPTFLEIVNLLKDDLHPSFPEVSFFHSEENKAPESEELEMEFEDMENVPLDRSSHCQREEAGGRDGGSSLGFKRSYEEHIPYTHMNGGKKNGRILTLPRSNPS
Procedure, shortened: as §1

TYK2(h) = TYK2(h) (Homo sapiens, UniProt P29597)
Chain of TYK2(h) (P29597 whole entry): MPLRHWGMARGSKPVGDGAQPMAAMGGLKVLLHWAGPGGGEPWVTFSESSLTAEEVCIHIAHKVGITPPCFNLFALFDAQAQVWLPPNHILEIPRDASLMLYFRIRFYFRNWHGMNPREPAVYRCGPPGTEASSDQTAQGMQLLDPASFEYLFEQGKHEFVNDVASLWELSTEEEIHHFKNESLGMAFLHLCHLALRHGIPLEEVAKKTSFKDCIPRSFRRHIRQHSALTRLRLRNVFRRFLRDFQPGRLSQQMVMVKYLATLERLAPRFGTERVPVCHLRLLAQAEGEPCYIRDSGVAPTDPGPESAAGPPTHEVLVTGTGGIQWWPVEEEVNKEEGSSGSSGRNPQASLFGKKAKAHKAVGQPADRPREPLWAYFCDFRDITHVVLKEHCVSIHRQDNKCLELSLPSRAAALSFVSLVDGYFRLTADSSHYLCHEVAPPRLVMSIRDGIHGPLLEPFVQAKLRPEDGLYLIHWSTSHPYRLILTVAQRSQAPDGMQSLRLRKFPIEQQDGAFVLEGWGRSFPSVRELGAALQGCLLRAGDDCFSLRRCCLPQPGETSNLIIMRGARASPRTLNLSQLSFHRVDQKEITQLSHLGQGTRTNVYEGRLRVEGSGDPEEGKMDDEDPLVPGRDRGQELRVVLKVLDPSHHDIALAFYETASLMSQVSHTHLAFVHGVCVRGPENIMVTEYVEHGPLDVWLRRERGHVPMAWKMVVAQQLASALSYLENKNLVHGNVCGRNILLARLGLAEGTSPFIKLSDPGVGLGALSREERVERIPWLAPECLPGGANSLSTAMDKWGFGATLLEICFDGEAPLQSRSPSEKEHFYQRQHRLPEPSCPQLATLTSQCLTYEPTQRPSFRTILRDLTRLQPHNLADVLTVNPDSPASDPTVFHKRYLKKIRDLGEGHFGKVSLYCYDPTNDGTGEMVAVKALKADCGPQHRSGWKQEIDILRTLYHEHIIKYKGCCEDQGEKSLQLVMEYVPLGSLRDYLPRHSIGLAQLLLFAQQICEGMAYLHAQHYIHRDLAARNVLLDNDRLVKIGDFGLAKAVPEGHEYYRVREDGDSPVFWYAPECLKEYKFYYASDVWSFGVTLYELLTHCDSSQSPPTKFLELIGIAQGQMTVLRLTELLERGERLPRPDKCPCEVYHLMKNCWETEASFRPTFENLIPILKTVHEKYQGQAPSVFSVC
Procedure, shortened: as §1

CK1γ1(h) = target: T3, CK1γ1(h) (Homo sapiens, UniProt Q9HCP0)
T3 construct: gene CSNK1G1
T3 sequence (Q9HCP0 whole entry): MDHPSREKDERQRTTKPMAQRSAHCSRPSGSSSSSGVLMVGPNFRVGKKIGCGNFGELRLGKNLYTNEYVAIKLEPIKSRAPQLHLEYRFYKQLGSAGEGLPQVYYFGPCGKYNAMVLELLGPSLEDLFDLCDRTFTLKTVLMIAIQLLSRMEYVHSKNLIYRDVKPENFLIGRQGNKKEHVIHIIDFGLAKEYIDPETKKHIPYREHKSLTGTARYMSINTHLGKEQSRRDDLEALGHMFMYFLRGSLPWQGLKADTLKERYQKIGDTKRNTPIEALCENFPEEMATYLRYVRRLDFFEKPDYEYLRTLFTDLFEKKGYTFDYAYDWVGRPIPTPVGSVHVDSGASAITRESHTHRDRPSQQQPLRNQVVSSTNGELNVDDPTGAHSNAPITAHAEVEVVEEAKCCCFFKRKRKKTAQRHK
Procedure, shortened: as §1

NLK(h) = target: T4, NLK(h) (Homo sapiens, UniProt Q9UBE8)
T4 sequence (Q9UBE8 1-527): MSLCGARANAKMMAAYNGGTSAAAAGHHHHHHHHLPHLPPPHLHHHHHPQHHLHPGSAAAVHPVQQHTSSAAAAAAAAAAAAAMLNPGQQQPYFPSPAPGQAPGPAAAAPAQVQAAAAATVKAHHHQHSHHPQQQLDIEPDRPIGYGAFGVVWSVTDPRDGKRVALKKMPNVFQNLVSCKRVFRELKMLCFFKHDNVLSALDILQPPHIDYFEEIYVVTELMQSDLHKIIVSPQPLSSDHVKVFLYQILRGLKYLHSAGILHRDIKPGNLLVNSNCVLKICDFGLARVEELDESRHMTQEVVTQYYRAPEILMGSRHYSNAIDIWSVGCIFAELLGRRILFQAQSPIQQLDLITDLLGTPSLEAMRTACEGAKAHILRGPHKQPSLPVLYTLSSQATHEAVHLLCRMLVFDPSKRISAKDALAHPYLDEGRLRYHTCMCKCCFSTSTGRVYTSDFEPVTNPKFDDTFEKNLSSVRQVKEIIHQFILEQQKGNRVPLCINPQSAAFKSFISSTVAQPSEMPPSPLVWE
Procedure, shortened: as §1

FAK(h) = target: T5, FAK(h) (Homo sapiens, UniProt Q05397)
T5 construct: gene PTK2
T5 sequence (Q05397 whole entry): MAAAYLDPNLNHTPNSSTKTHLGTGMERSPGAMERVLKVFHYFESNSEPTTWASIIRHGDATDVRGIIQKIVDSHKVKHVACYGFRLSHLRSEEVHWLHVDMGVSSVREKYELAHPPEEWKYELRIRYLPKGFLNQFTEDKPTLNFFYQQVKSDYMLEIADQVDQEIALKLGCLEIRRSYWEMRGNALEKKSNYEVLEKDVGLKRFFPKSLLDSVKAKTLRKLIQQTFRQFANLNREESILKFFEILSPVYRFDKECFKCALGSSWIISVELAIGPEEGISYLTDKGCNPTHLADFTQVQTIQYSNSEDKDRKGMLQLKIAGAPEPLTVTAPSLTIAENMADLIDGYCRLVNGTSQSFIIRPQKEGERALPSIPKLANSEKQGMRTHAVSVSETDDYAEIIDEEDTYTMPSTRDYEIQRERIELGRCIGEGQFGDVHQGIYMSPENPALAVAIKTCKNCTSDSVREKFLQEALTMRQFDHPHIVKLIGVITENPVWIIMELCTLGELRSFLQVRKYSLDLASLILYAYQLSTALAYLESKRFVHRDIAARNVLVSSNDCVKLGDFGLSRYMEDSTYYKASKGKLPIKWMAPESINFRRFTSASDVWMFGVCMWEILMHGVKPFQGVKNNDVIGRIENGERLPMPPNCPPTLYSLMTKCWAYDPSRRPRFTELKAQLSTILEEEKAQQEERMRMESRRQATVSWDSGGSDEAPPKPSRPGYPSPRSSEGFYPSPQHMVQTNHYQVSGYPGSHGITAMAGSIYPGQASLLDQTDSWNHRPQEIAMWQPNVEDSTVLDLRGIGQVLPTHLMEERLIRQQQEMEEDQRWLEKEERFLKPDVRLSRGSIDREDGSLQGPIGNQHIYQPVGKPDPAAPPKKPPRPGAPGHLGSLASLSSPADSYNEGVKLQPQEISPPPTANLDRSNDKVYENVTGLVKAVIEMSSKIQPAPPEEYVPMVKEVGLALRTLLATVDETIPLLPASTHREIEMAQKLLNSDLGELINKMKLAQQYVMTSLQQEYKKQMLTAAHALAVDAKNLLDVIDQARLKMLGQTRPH
Procedure, shortened: as §1

[1] = read-out: Residual activity (%) 5at
[2] = read-out: Residual activity (%) 5as
[3] = read-out: Residual activity (%) 5ay
[4] = read-out: Residual activity (%) Spautin-1 5aa

Work on `Fc1ccc2ncnc(NCCc3ccc(Cl)cc3)c2c1` [5at, N-[2-(4-Chlorophenyl)Ethyl]-6-Fluoro-4-Quinazolinamine] yielded a remaining activity at 10 µM (ASK1(h); [1]) of 80%, a remaining activity at 10 µM (IR(h); [1]) of 70% and a remaining activity at 10 µM (TYK2(h); [1]) of 84%. For the same molecule, the remaining activity at 10 µM (CK1γ1(h); [1]) was 80%, the remaining activity at 10 µM (NLK(h); [1]) was 82% and the remaining activity at 10 µM (FAK(h); [1]) was 83%.
`Fc1ccc(CCNc2ncnc3ccc(F)cc23)cc1` [5as, 6-Fluoro-N-[2-(4-Fluorophenyl)Ethyl]-4-Quinazolinamine] was tested, and the remaining activity at 10 µM (ASK1(h); [2]) was 85%, the remaining activity at 10 µM (IR(h); [2]) was 88% and the remaining activity at 10 µM (TYK2(h); [2]) was 86%. It also gave a remaining activity at 10 µM (CK1γ1(h); [2]) of 80%, a remaining activity at 10 µM (NLK(h); [2]) of 93% and a remaining activity at 10 µM (FAK(h); [2]) of 88%.
`COc1ccc2ncnc(Nc3cccc(F)c3)c2c1` [5ay, N-(3-Fluorophenyl)-6-Methoxy-4-Quinazolinamine] was tested, and the remaining activity at 10 µM (ASK1(h); [3]) was 99%, the remaining activity at 10 µM (IR(h); [3]) was 98% and the remaining activity at 10 µM (TYK2(h); [3]) was 75%. It also gave a remaining activity at 10 µM (CK1γ1(h); [3]) of 94%, a remaining activity at 10 µM (NLK(h); [3]) of 80% and a remaining activity at 10 µM (FAK(h); [3]) of 84%.
For `Fc1ccc(CNc2ncnc3ccc(F)cc23)cc1` [5aa, 6-Fluoro-N-(4-fluorobenzyl)-4-Quinazolinamine], the remaining activity at 10 µM (ASK1(h); [4]) was 95%, the remaining activity at 10 µM (IR(h); [4]) was 73% and the remaining activity at 10 µM (TYK2(h); [4]) was 109%. For the same molecule, the remaining activity at 10 µM (CK1γ1(h); [4]) was 99%, the remaining activity at 10 µM (NLK(h); [4]) was 85% and the remaining activity at 10 µM (FAK(h); [4]) was 84%.
